Test results published in US8962630B2, “Pyrrolopyrimidine compounds and their uses” (Novartis AG, priority 2008, dated 2015).
Read-outs that look alike come from different tables or passages of the source.

Columns and labels:
Type in all cases: biochemical
CDK4/cyclin D1 = CDK4/cyclin D1 (Homo sapiens (Human), UniProt P11802); assay: CDK4/Cyclin D1 enzymatic activity assay (Lance TR-FRET)
Method: A 384-well microtiter Lance TR-FRET (time-resolved-fluorescence energy transfer) endpoint assay was used for CDK4/cyclin D1 kinase activity measurements. The same assay was used for IC50 determination of small molecule inhibitors. In general, the kinase reactions were carried out in 30 μL volumes in the reaction solution containing the following: 2 uL compound (in […]), 18 uL CDK4/cyclin D1 in Assay Buffer (50 mM HEPES, pH 7.5, 5 mM MgCl2, 2 mM MnCl2, 1 mM DTT, 0.05% BSA, 0.02% Tween-20), 10 uL of the mixture of pRb152 and ATP. The final reaction mixture contains compound (inhibitor) with the concentration varying from 0.005-10 μM, 2% DMSO, 0.3 nM CDK4/cyclin D1, 175 nM pRb152, and 3 μM ATP (Amersham Pharmacia, Cat. No. 27-2056-01). All reactions were run at room temperature in 384-well white flat-bottom OptiPlates (Perkin Elmer, Cat. No. 6007290) for 60 min then were quenched by the addition of 10 μL of 120 mM EDTA. The signals were captured by the addition of 40 μL of the Detection Solution containing the following: Detection Buffer (50 mM HEPES, pH 7.5, 30 mM EDTA, 0.1% Triton x-100, 0.05% BSA), 70 ng/mL anti-phospho-pRb(S780) (Cell Signaling Technology, Cat. No. 9307S), 1 nM Lance Eu-W1024-Rabbit anti-IgG (Perkin Elmer, Cat. No. AD0082), and 20 nM SureLight™ Allophycocyanin-Streptavidin (Perkin Elmer, Cat. No. CR130-100). The resulted solutions were incubated at room temperature for 2 hours before read on the Evision Multilabel Reader (Perkin Elmer, Envision 2102-0010).
CDk4/cyclin D1 recombinant protein used in the enzymatic activity assay was prepared by coexpressing pDEST10-CDK4 (N-terminal His6) and pFastBacDual-GST-hCyclinDl viruses in Sf21 cells.

CDK1/cyclin B = CDK1/cyclin B (Homo sapiens (Human), UniProt P06493); assay: CDK1/Cyclin B enzymatic activity assay (IMAP-FP)
Sequence of CDK1/cyclin B (P06493 whole entry, species assumed): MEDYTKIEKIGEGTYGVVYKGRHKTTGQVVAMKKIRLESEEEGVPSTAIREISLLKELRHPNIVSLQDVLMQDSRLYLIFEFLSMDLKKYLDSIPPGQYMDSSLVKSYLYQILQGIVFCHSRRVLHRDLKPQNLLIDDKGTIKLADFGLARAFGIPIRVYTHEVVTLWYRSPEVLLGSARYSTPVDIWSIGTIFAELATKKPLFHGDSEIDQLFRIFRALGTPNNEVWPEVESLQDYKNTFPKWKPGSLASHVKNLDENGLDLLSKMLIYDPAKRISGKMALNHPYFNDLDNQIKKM
Sequence of CDK1/cyclin B (P14635 whole entry partner, species assumed): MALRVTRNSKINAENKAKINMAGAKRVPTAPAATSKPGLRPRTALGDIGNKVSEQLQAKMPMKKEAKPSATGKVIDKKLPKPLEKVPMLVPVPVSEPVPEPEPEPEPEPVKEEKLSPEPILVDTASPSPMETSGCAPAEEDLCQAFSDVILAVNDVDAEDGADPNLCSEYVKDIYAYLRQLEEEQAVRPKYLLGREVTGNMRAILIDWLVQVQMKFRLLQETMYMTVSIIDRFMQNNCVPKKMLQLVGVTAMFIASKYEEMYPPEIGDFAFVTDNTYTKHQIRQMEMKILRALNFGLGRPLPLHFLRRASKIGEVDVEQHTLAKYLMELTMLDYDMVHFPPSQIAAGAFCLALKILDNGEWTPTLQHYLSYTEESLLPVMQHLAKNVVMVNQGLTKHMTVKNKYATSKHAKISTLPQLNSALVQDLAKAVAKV
Source text: A 384-well microtiter IMAP-FPT™ (Molecular Devices Trade Mark Technology) endpoint assay was used for CDK1/cyclin B kinase activity measurements. The same assay was used for IC50 determination of small molecule inhibitors.

CDK2/cyclin A = CDK2/cyclin A (Homo sapiens (Human), UniProt P24941); assay: CDK2/Cyclin A enzymatic activity assay (IMAP-FP)
[1] = Table 2, 3 μM ATP, read-out: CDK4
[2] = Table 2, 20 μM ATP, read-out: CDK1

Sequence of CDK4/cyclin D1 (P11802 whole entry): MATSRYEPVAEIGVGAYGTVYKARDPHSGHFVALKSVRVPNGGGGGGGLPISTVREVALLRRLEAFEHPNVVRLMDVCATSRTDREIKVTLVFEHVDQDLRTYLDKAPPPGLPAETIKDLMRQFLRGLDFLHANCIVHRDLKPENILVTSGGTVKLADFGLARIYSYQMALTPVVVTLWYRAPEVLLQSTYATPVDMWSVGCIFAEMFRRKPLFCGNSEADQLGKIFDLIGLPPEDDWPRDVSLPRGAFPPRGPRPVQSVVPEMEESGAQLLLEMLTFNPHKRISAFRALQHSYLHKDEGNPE
Sequence of CDK4/cyclin D1 (P24385 whole entry partner): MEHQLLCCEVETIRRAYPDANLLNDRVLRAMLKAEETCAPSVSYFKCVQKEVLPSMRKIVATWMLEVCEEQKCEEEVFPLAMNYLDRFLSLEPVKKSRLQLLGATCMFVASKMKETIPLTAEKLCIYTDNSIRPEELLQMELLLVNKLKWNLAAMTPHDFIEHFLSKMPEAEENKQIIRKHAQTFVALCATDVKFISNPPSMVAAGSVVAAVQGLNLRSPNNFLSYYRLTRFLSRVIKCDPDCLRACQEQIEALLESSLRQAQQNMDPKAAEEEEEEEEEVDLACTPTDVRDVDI

| SMILES | IC50 (CDK4/cyclin D1; [1]) [µM] | IC50 (CDK1/cyclin B; [2]) [µM] | IC50 (CDK2/cyclin A; Table 2, read-out: CDK2) [µM] | IC50 (CDK4/cyclin D1; Table 4, read-out: IC50 (μM) CDK4) [µM] | IC50 (CDK1/cyclin B; Table 4, read-out: IC50 (μM) CDK1) [µM] | IC50 (CDK2/cyclin A; Table 4, read-out: IC50 (μM) CDK2) [µM] |
| --- | --- | --- | --- | --- | --- | --- |
| CN(C)C(=O)c1cc2cnc(Nc3ccc(C4CCN(CCO)CC4)cn3)nc2n1C1CCCC1 [Example 100, 7-Cyclopentyl-2-[1′-(2-hydroxy-ethyl)-1′,2′,3′,4′,5′,6′-hexahydro-[3,4]bipyridinyl-6-ylamino]-7H-pyrrolo[2,3-d]pyrimidine-6-carboxylic acid dimethylamide] | 0.01 to 0.1 | > 15 | > 15 | – | – | – |
| Cc1c(C(=O)N(C)C)n(C2CCCC2)c2nc(Nc3ccc(N4CCNCC4)cn3)ncc12 [Example 202, reference compound] | – | – | – | 2.5 | > 15 | > 15 |
| CN(C)C(=O)c1cc2cnc(Nc3ccc(N4CCN(CC(F)(F)F)CC4)cn3)nc2n1C1CCCC1 [Example 25, 7-Cyclopentyl-2-{5-[4-(2,2,2-trifluoro-ethyl)-piperazin-1-yl]-pyridin-2-ylamino}-7H-pyrrolo[2,3-d]pyrimidine-6-carboxylic acid dimethylamide] | 0.01 to 0.1 | > 15 | > 15 | – | – | – |
| CN(C)C(=O)c1cc2cnc(Nc3ccc(N4CCN(C(=O)C5CCCCC5)CC4)cn3)nc2n1C1CCCC1 [Example 23, 2-[5-(4-Cyclohexanecarbonyl-piperazin-1-yl)-pyridin-2-ylamino]-7-cyclopentyl-7H-pyrrolo[2,3-d]pyrimidine-6-carboxylic acid dimethylamide] | 0.01 to 0.1 | > 15 | > 15 | – | – | – |
| CN(C)C(=O)c1cc2cnc(Nc3ccc(CN4CC(O)C4)cn3)nc2n1C1CCCC1 [Example 10A, 7-Cyclopentyl-2-[5-(3-hydroxy-azetidin-1-ylmethyl)-pyridin-2-ylamino]-7H-pyrrolo[2,3-d]pyrimidine-6-carboxylic acid dimethylamide] | 0.01 to 0.1 | 12 | 14 | – | – | – |
| CN(C)C(=O)c1cc2cnc(Nc3ccc(C(=O)N(C)C4CCNCC4)cn3)nc2n1C1CCCC1 [Example 53, 7-Cyclopentyl-2-[5-(methyl-piperidin-4-yl-carbamoyl)-pyridin-2-ylamino]-7H-pyrrolo[2,3-d]pyrimidine-6-carboxylic acid dimethylamide] | 0.01 to 0.1 | > 15 | > 15 | – | – | – |
| C[C@H](O)CN1CCN(c2ccc(Nc3ncc4cc(C(=O)N(C)C)n(C5CCCC5)c4n3)nc2)CC1 [Example 56, 7-Cyclopentyl-2-{5-[4-((S)-2-hydroxy-propyl)-piperazin-1-yl]-pyridin-2-ylamino}-7H-pyrrolo[2,3-d]pyrimidine-6-carboxylic acid dimethylamide] | 0.01 to 0.1 | > 15 | > 15 | – | – | – |
| CN(C)C(=O)c1cc2cnc(Nc3ccc(N4CCOCC4)cn3)nc2n1C1CCCC1 [Example 110, 7-Cyclopentyl-2-(5-morpholin-4-yl-pyridin-2-ylamino)-7H-pyrrolo[2,3-d]pyrimidine-6-carboxylic acid dimethylamide] | 0.1 to 1 | > 15 | > 15 | – | – | – |
| CN(C)C(=O)c1cc2cnc(Nc3ccc(N4CCC(O)CC4)cn3)nc2n1C1CCCC1 [Example 20, 7-Cyclopentyl-2-(4-hydroxy-3,4,5,6-tetrahydro-2H-[1,3′]bipyridinyl-6′-ylamino)-7H-pyrrolo[2,3-d]pyrimidine-6-carboxylic acid dimethylamide] | 0.01 to 0.1 | > 15 | > 15 | – | – | – |
| CN(C)C(=O)c1cc2cnc(Nc3ccc(N4CCNC(C)(C)C4)cn3)nc2n1C1CCCC1 [Example 72, 7-Cyclopentyl-2-[5-(3,3-dimethyl-piperazin-1-yl)-pyridin-2-ylamino]-7H-pyrrolo[2,3-d]pyrimidine-6-carboxylic acid dimethylamide] | 0.01 to 0.1 | > 15 | > 15 | – | – | – |
| CN(C)C(=O)c1cc2cnc(Nc3ccccn3)nc2n1C1CCCC1 [Example 1, 7-Cyclopentyl-2-(pyridin-2-ylamino)-7H-pyrrolo[2,3-d]pyrimidine-6-carboxylic acid dimethylamide] | 0.1 to 1 | > 15 | > 15 | – | – | – |
| C[C@H]1CN(c2ccc(Nc3ncc4cc(C(=O)N(C)C)n(C5CCCC5)c4n3)nc2)CCN1C(=O)OC(C)(C)C [Example 31, (S)-4-[6-(7-Cyclopentyl-6-dimethylcarbamoyl-7H-pyrrolo[2,3-d]pyrimidin-2-ylamino)-pyridin-3-yl]-2-methyl-piperazine-1-carboxylic acid tert-butyl ester] | 0.1 to 1 | > 15 | > 15 | – | – | – |
| CN(C)C(=O)c1cc2cnc(Nc3ccc(N4CCNCC4=O)cn3)nc2n1C1CCCC1 [Example 109, 7-cyclopentyl-2-[5-(2-oxopiperazin-1-yl)pyridin-2-ylamino]-7H-pyrrolo[2,3-d]pyrimidine-6-carboxylic acid dimethylamide] | 0.1 to 1 | – | – | – | – | – |
| CN(C)C(=O)c1cc2cnc(Nc3ccc(CN4CC5CCC(C4)N5)cn3)nc2n1C1CCCC1 [Example 73, 7-Cyclopentyl-2-[5-(3,8-diaza-bicyclo[3.2.1]oct-3-ylmethyl)-pyridin-2-ylamino]-7H-pyrrolo[2,3-d]pyrimidine-6-carboxylic acid dimethylamide] | 0.01 to 0.1 | – | – | – | – | – |

Next, values leading:

| IC50 (CDK4/cyclin D1; [1]) [µM] | IC50 (CDK1/cyclin B; [2]) [µM] | IC50 (CDK2/cyclin A; Table 2, read-out: CDK2) [µM] | IC50 (CDK4/cyclin D1; Table 4, read-out: IC50 (μM) CDK4) [µM] | IC50 (CDK1/cyclin B; Table 4, read-out: IC50 (μM) CDK1) [µM] | IC50 (CDK2/cyclin A; Table 4, read-out: IC50 (μM) CDK2) [µM] | SMILES |
| --- | --- | --- | --- | --- | --- | --- |
| 0.01 to 0.1 | > 15 | > 15 | – | – | – | CN(C)C(=O)c1cc2cnc(Nc3ccc(N4CC[C@H](O)C4)cn3)nc2n1C1CCCC1 [Example 39, 7-Cyclopentyl-2-[5-((S)-3-hydroxy-pyrrolidin-1-yl)-pyridin-2-ylamino]-7H-pyrrolo[2,3-d]pyrimidine-6-carboxylic acid dimethylamide] |
| 0.001 to 0.01 | > 15 | > 15 | – | – | – | CCN1CCN(c2ccc(Nc3ncc4cc(C(=O)N(C)C)n(C5CCCC5)c4n3)nc2)CC1 [Example 78, 7-Cyclopentyl-2-[5-(4-ethyl-piperazin-1-yl)-pyridin-2-ylamino]-7H-pyrrolo[2,3d]pyrimidine-6-carboxylic acid dimethylamide] |
| 0.01 to 0.1 | > 15 | > 15 | – | – | – | CN(C)C(=O)c1cc2cnc(Nc3ccc(N(C)CCN)cn3)nc2n1C1CCCC1 [Example 59, 2-{5-[(2-Amino-ethyl)-methyl-amino]-pyridin-2-ylamino}-7-cyclopentyl-7H-pyrrolo[2,3-d]pyrimidine-6-carboxylic acid dimethylamide] |
| 0.01 to 0.1 | > 15 | > 15 | – | – | – | C[C@H]1CN(Cc2ccc(Nc3ncc4cc(C(=O)N(C)C)n(C5CCCC5)c4n3)nc2)CCN1 [Example 55, 7-Cyclopentyl-2-[5-((S)-3-methyl-piperazin-1-ylmethyl)-pyridin-2-ylamino]-7H-pyrrolo[2,3-d]pyrimidine-6-carboxylic acid dimethylamide] |
| 0.001 to 0.01 | > 15 | > 15 | – | – | – | CC(C)CN1CCN(c2ccc(Nc3ncc4cc(C(=O)N(C)C)n(C5CCCC5)c4n3)nc2)CC1 [Example 92, 7-Cyclopentyl-2-[5-(4-isobutyl-piperazin-1-yl)-pyridin-2-ylamino]-7H-pyrrolo[2,3-d]pyrimidine-6-carboxylic acid dimethylamide] |
| 0.001 to 0.01 | 1.3 | 3.5 | – | – | – | c1ncc(-c2cc3cnc(Nc4ccc(N5CCNCC5)cn4)nc3n2C2CCCC2)o1 [Example 11, (7-Cyclopentyl-6-oxazol-5-yl-7H-pyrrolo[2,3-d]pyrimidin-2-yl)-(5-piperazin-1-yl-pyridin-2-yl)-amine] |
